Assay results from ChEMBL document CHEMBL3608213, “Inhibitors of the Epidermal Growth Factor Receptor (EGFR) May Provide Effective Treatment for Lung Adenocarcinoma” (ACS Med Chem Lett, 2015).

What was measured:
[1] = target: T1, Epidermal growth factor receptor (Homo sapiens, UniProt P00533); test: Inhibition of EGFR deletion/T790M mutant in human PC9-DRH cells assessed as inhibition of phosphorylation at Y1068 after 2 hrs by sandwich ELISA method; assay type: cell-based
Target sequence in this assay (P00533 25-1210 limits assumed, stated change not applied): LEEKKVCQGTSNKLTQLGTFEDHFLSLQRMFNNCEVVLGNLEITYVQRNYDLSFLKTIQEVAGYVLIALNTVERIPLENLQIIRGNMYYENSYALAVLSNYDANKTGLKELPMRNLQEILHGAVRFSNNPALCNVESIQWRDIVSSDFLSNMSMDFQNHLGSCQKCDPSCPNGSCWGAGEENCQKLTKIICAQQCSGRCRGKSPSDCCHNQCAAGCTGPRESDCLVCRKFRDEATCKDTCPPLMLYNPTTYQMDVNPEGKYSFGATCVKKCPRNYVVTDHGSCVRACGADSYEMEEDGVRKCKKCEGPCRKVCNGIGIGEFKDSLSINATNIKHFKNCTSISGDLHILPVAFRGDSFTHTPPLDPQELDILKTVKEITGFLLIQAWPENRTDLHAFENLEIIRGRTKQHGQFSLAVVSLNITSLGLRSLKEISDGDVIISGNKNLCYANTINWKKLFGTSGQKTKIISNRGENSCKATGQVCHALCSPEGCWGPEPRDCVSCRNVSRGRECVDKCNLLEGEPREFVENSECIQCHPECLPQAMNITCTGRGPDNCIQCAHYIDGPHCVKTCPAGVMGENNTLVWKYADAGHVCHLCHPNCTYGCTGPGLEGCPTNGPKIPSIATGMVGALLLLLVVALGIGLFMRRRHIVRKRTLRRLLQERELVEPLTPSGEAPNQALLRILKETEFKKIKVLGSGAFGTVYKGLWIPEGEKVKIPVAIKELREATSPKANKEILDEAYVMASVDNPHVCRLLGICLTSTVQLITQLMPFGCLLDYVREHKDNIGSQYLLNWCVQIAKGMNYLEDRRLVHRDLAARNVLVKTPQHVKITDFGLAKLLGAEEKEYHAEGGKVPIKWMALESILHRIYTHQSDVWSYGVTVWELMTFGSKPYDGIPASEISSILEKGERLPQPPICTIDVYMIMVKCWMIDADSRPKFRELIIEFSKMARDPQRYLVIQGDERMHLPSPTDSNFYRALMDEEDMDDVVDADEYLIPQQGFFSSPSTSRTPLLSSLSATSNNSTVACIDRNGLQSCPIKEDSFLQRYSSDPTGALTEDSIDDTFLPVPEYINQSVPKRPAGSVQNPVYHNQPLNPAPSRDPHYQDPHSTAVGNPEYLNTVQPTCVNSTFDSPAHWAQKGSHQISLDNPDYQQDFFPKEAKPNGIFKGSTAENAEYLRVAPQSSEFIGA

[2] = target: Epidermal growth factor receptor (Homo sapiens, UniProt P00533, E746-A750DEL); test: Inhibition of EGFR E746-A750 deletion mutant in human PC9 cells assessed as inhibition of phosphorylation at Y1068 after 2 hrs by sandwich ELISA method; assay type: cell-based, PC-9
[3] = target: T1, Epidermal growth factor receptor; test: Inhibition of wild type EGFR in human A549 cells assessed as inhibition of phosphorylation at Y1068 after 2 hrs by sandwich ELISA method; assay type: cell-based
Target sequence in this assay (P00533 whole entry): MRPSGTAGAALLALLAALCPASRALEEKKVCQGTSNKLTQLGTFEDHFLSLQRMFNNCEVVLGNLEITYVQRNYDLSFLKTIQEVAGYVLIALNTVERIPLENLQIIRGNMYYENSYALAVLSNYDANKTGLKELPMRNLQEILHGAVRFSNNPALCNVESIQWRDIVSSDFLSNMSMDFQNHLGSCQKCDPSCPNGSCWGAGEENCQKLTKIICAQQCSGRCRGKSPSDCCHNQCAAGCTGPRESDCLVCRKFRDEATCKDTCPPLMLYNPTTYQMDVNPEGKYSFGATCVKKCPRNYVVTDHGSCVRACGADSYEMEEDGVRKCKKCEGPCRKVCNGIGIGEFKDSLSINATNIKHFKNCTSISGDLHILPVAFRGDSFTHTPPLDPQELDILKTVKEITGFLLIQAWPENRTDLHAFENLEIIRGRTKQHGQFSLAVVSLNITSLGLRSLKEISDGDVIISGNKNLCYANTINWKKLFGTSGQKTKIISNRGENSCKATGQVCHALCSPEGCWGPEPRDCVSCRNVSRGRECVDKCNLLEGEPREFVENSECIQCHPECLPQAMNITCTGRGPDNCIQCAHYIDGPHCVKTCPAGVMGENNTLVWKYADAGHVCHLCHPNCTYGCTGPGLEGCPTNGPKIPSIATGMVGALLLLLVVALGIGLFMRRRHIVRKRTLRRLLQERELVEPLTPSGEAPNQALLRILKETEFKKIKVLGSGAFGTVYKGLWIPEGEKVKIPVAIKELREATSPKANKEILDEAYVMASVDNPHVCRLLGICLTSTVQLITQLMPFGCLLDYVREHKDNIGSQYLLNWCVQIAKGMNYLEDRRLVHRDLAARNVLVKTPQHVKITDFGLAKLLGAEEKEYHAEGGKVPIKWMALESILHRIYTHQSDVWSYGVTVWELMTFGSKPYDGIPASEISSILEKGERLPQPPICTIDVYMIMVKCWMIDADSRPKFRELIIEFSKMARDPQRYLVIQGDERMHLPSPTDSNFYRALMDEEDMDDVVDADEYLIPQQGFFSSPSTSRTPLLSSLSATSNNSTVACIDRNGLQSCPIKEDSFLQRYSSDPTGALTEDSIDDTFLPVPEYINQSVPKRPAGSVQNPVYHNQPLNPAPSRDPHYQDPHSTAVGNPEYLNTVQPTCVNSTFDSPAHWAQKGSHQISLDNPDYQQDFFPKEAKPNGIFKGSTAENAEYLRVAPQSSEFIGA

Sequence of Epidermal growth factor receptor (Homo sapiens, UniProt P00533, E746-A750DEL) (P00533 whole entry E746-A750del, looked up): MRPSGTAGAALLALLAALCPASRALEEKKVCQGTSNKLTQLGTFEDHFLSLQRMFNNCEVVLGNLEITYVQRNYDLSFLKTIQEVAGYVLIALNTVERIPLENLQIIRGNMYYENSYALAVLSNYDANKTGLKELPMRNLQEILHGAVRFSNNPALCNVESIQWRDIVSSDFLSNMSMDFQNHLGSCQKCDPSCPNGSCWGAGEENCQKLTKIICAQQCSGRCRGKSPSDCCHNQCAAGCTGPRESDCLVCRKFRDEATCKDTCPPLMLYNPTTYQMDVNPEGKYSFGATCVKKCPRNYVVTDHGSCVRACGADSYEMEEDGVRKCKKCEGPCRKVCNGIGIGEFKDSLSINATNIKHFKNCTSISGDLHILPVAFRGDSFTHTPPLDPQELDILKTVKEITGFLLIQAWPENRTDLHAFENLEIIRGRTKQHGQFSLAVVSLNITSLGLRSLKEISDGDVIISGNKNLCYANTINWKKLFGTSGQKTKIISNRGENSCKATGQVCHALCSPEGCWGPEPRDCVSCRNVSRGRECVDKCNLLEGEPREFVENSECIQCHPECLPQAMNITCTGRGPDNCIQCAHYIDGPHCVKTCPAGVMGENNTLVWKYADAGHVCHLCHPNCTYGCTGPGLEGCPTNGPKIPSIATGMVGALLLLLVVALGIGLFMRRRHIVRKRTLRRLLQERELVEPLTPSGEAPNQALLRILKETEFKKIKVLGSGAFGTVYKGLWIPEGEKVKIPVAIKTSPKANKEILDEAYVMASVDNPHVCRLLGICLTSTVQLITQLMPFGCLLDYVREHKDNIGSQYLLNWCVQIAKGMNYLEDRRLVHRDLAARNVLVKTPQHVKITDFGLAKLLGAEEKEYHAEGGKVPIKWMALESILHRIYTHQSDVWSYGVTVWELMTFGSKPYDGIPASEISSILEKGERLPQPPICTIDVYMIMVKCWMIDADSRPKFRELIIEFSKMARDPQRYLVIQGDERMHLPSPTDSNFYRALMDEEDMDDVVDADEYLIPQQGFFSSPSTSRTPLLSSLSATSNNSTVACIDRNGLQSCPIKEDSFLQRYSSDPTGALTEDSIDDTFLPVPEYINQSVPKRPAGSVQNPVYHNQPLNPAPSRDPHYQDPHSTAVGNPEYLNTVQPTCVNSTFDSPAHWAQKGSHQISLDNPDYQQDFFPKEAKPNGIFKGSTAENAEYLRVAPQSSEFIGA

`C=CC(=O)N1C[C@@H]2CN(c3nc(Nc4ccc(N5CCN(C)CC5)cc4)c4ncn(C(C)C)c4n3)C[C@@H]2C1` was tested, and the IC50 [1] was 18 nM and the IC50 [2] was 8 nM.
`C=CC(=O)N[C@H]1CCN(c2nc(Nc3ccc(N4CCN(C)CC4)cc3)c3ncn(CCO)c3n2)C1` gave an IC50 [2] of 31 nM.
With `C=CC(=O)N[C@@H]1CN(c2nc(Nc3cn(C)nc3C)c3ncn(C(C)C)c3n2)C[C@H]1F` the IC50 [1] was 2130 nM, the IC50 [3] was 10000 nM and the IC50 [2] was 6650 nM.
`C=CC(=O)N[C@@H]1CN(c2nc(Nc3cn(CC)nc3OC)c3ncn(C)c3n2)C[C@H]1F` showed an IC50 [1] of 1 nM and an IC50 [2] of 6 nM.
